IC50 data for 1 compound are collected here from ChEMBL document CHEMBL5120756, “Mycobacterial Membranes as Actionable Targets for Lipid-Centric Therapy in Tuberculosis” (J Med Chem, 2022).

The test system of this experiment is Salmonella typhimurium. As to the kind of experiment: Antibacterial activity against salmonella typhimurium infected in gentamicin-treated mouse RAW264.7 macrophages assessed as reduction of bacterial accumulation with macrophage measured after 17.5 hrs of post infection by SAFIRE assay. Type of experiment: functional, organism-based, Salmonella enterica subsp. enterica serovar Typhimurium. The note with it: Salmonella enterica, RAW264.7, 17.5 h.

What is called IC50 is the concentration that inhibits the measured activity by half.

In the case of `OC(COc1ccc(C2C3CC4CC(C3)CC2C4)cc1)CN1CCCCC1` (stereo unspecified), the IC50 is 120 nM.
